Earlier results as cited in paper PMC11952222, “Development and comparison of single FLT3-inhibitors to dual FLT3/TAF1-inhibitors as an anti-leukemic approach” (PLOS One, 2025).

Tested on: TAF1
Conditions: reference compounds; read-out: TAF1 IC50, literature-reported; cited from earlier work

Cc1cc2c(cc1N1C(=O)c3cccc4c(CCCO)ccc(c34)C1=O)n(C)c(=O)n2C [BAY299]
IC50: 8 nM
